Assay results reported in patent US20250228772A1, “DRUG DELIVERY SYSTEM COMPRISING A REFLUX INHIBITOR FOR THE APPLICATION TO ESOPHAGEAL MUCOUS MEMBRANES” (EsoCap AG, priority 2022, published 2025).

Columns and labels:
[1] = UV/Vis spectroscopy of film samples against a reference sample; format: physicochemical; conditions: PVA 18-88/glycerol film, FSG medium pH 1.2, spectrum compared with a reference sample
Protocol: Further, the film was analyzed for the content of Baclofen. To this end, 6 circular samples with a diameter of 1.9 cm (2.84 cm^2) were cut at random positions of the film and analyzed with a UV/Vis spectroscopy in FSG medium, pH 1.2. The absorption spectrum is shown in FIG. 10 in comparison to a reference sample comprising Baclofen solved in FSG medium, pH 1.2.

[2] = tested on: reflux episodes and transient lower esophageal sphincter relaxations; conditions: meta-analysis of nine clinical studies; cited from earlier work
[3] = oral administration, clinical use, 15 to 75 mg per day; cited from earlier work
[4] = tested on: transient lower esophageal sphincter relaxations; conditions: after systemic administration (Lidums 2000); cited from earlier work

NCC(CC(=O)O)c1ccc(Cl)cc1 (stereo not drawn) [Baclofen, 4-Amino-3-(4-chlorphenyl) butyric acid]
stability of Baclofen in the polymer film [1]: can be stably prepared in a film
incidence of transient lower esophageal sphincter relaxations [2]: decreased
length of reflux episodes [2]: decreased
number of reflux episodes [2]: decreased
tolerability / side effects [3]: poor tolerability due to severe side effects
transient lower esophageal sphincter relaxations [4]: control transient lower esophageal sphincter relaxations
